Experimental data from publication PMC5063506, “A Novel Class of Small Molecule Agonists with Preference for Human over Mouse TLR4 Activation” (PLoS ONE, 2016).
Values after ≈ are worked out from the molar mass of the structure shown. Like-named read-outs stand apart in the source and are kept apart here.

Tests used:
human TLR4 = biological target: T1, human TLR4 (Homo sapiens, UniProt O00206+Q9Y6Y9); test: Human TLR4 NFκB SEAP reporter gene assay in hTLR4-transfected HEK293 cells; assay type: cell-based; details: for EC50: NFκB SEAP reporter, hTLR4-transfected HEK293 cells, 20 h, read-out: Human TLR4 pEC50 (converted)
T1 construct: expressed in transfected cells; host or cells: HEK293 with stably integrated pNiFty2-SEAP reporter
T1 sequence (O00206 24-839): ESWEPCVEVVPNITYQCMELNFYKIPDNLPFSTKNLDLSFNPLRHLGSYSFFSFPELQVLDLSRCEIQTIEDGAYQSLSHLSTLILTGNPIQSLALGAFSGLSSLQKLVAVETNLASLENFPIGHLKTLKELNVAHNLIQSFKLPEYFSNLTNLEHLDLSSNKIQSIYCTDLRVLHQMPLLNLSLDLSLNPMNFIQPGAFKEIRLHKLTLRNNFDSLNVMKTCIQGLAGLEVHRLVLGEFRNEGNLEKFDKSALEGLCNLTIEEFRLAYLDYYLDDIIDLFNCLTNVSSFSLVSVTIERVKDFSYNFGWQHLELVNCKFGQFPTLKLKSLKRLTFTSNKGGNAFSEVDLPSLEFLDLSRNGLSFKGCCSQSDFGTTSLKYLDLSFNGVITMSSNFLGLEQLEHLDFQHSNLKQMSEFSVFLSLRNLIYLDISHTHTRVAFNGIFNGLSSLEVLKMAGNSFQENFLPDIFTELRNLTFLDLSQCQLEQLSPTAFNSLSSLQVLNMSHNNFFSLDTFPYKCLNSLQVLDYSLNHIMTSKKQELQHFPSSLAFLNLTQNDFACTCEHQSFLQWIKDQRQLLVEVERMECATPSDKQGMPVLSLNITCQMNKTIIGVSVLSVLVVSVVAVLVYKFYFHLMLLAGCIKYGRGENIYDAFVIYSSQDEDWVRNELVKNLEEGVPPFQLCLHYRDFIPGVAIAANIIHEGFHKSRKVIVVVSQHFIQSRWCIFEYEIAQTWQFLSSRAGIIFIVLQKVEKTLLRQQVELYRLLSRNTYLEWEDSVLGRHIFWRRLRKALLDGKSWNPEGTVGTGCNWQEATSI
T1 sequence (Q9Y6Y9 19-160): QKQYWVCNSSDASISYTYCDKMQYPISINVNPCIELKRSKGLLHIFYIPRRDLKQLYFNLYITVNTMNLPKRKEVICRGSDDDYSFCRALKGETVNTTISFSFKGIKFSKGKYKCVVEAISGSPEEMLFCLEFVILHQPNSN
Procedure: (§1) HEK293 cells stably transfected with pNiFty2-SEAP reporter plasmid were transiently transfected with either human or mouse TLR4 (pUNO expression vector), in combination with either human or mouse CD14/MD2 (pDUO expression vector). Transient transfectants were seeded in Dulbecco’s Modified Eagle Medium, FCS 10% (v/v), 2 mM l glutamine and non-essential amino acids. Cells were seeded in tissue culture treated clear flat bottom polystyrene 96 well plates (Costar, 3598) at 1e4 cells/well. Concentration-response curves were generated by addition of test compounds and incubation for 20 h at 37°C in an atmosphere of 5% CO2. LPS (E. coli 0111:B4, Ultra-pure, Invivogen) or PHAD (Avanti Polar Lipids) was used as a positive control. The SEAP released was quantified using p nitrophenyl phosphate as a substrate, and the absorbance at 405 nm was measured at 30 second intervals over several minutes using a microplate reader. Some data are recorded as the pEC50, the negative log of the EC50 value. Other data generated from these reporter cell lines were converted to AUC (area under the curve) values by interpolation of fitted cubic spline curve between OD value and log concentration levels. The calculation is performed using MESS package in statistical software R (www.r-project.org/).

[1] = LogD, octanol/water distribution coefficient; assay type: physicochemical; details: pH 7.4; octanol/water distribution coefficient at pH7.4
Excerpt: (§2) Fig 2 Optimization stages of Ugi products as TLR4 agonists. *Human TLR-4 NFκB SEAP reporter assays; protocol as described in Methods. Data are reported as pEC50, or negative log of the EC50 values. **Clint rh / hm represents intrinsic clearance in presence of rat hepatocytes (μL/min/10^6 cells) and human microsomes (μL/min/mg protein). […] Thus a drug molecule with LogD >4 might be considered to be very lipophilic and therefore more likely to suffer from rapid metabolic turnover, poor solubility and receptor promiscuity; whereas a LogD range of 1–3 is more likely to be associated with optimal physicochemical and drug-like properties. ^††Solubility was measured by dissolution of solid samples in buffer at pH 7.4.

mouse TLR4/MD2 = biological target: T2, mouse TLR4/MD2 (Mus musculus, UniProt Q9JHF9+Q9QUK6); test: mTLR4/MD2-HEK293 transfectant SEAP (QUANTI-Blue) dose response, AUC; assay type: cell-based; details: 1 μg/ml to 4 ng/ml, 24 h, SEAP OD 650 nm vs log concentration
T2 construct: host or cells: HEK293
T2 sequence (Q9QUK6 26-835): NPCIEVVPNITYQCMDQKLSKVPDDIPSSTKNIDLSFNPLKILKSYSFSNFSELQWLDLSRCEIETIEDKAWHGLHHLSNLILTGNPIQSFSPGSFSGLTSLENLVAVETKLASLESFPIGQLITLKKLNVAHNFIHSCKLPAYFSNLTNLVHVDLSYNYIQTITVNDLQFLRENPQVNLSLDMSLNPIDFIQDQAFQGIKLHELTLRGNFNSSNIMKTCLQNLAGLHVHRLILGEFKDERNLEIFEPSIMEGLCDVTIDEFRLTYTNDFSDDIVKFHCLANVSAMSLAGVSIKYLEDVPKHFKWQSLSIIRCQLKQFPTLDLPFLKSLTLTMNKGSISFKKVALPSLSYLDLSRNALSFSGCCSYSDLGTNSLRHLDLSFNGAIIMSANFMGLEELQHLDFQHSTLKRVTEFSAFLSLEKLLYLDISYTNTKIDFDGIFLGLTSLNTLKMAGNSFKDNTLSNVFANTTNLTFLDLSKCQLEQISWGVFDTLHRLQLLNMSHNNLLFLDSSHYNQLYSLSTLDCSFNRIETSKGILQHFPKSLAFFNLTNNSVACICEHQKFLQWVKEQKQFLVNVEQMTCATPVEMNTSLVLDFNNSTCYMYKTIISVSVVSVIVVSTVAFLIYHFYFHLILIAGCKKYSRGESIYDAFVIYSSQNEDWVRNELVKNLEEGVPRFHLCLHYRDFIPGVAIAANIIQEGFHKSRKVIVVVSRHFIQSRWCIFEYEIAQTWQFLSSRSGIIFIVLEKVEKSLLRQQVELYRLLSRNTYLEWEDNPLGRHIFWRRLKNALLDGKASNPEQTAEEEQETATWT
T2 sequence (Q9JHF9 19-160): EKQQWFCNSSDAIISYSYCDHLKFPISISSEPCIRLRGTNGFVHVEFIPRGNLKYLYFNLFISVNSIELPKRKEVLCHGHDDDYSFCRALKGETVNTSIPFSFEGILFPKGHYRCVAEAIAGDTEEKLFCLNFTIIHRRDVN
Procedure: as §1, with “Cells” for “HEK293 cells stably transfected with pNiFty2-SEAP reporter plasmid were transiently transfected with either human or mouse TLR4 (pUNO expression vector), in combination with either human or mouse CD14/MD2 (pDUO expression vector). Transient transfectants were seeded in Dulbecco’s Modified Eagle Medium, FCS 10% (v/v), 2 mM l glutamine and non-essential amino acids. Cells”
(§3) Fig 4 Ugi compounds preferentially activate TLR4-HEK transfectants expressing human MD2. A-B) HEK293 cells transfected with human TLR4/MD2 or mouse TLR4/MD2 (InVivogen) were stimulated with TLR4 agonists including MPL, PHAD, and Ugi compounds at 1 μg/ml to 4 ng/ml and with LPS at 25 ng/ml to 64 pg/ml for 24 h. SNs were analyzed for SEAP content by the QUANTI-Blue assay (InVivogen) and analysis at 650 nm by spectrophotometer. AUC (area under the curve) values were calculated as in Methods. No AUC value was calculated for LPS since it was utilized with a different dose range. C) HEK transfectants with cis- or trans-species expression of TLR4, MD2, and CD14 were stimulated with Ugi compounds in a dose response range of 9 μM to 1 nM or with LPS (boxes) at 75 ng/ml to 5 pg/ml for 48 h. Data was obtained as Vmax calculated over the initial linear portion of the kinetic absorbance measurements. The AUC (area under the curve) value for the dose response curve of Vmax vs log10 (molar units) was calculated for each compound using Trapezoidal rule. TEXT PRINTED IN THE PICTURE: (A) MPL: hTLR4-HEK AUC: 0.55 | (A) AZ617: hTLR4-HEK AUC: 5.90 | (A) AZ618: hTLR4-HEK AUC: 6.56 | (A) AZ839: hTLR4-HEK AUC: 6.00 | (A) AZ161: hTLR4-HEK AUC: 5.54 | (A) AZ902: hTLR4-HEK AUC: 7.04 | (A) GLA: hTLR4-HEK AUC: 3.75 | (B) MPL: mTLR4-HEK AUC: 13.27 | (B) AZ617: mTLR4-HEK AUC: 0.89 | (B) AZ618: mTLR4-HEK AUC: 1.03 | (B) AZ839: mTLR4-HEK AUC: 0.93 | (B) AZ161: mTLR4-HEK AUC: 0.99 | (B) AZ902: mTLR4-HEK AUC: 1.55 | (B) GLA: mTLR4-HEK AUC: 14.24

human TLR4/MD2 = biological target: T3, human TLR4/MD2 (Homo sapiens, UniProt O00206+Q9Y6Y9); test: hTLR4/MD2-HEK293 transfectant SEAP (QUANTI-Blue) dose response, AUC; assay type: cell-based; details: 1 μg/ml to 4 ng/ml, 24 h, SEAP OD 650 nm vs log concentration
T3 construct: host or cells: HEK293
T3 sequence (O00206 24-839): as the sequence (O00206 24-839) above
T3 sequence (Q9Y6Y9 19-160): as the sequence (Q9Y6Y9 19-160) above
Procedure: as §1, with “Cells” for “HEK293 cells stably transfected with pNiFty2-SEAP reporter plasmid were transiently transfected with either human or mouse TLR4 (pUNO expression vector), in combination with either human or mouse CD14/MD2 (pDUO expression vector). Transient transfectants were seeded in Dulbecco’s Modified Eagle Medium, FCS 10% (v/v), 2 mM l glutamine and non-essential amino acids. Cells”
as §3

[2] = Solubility by dissolution of solid samples in buffer; assay type: physicochemical; details: aqueous buffer, thermodynamic from solid; solid samples in buffer at pH 7.4
Excerpt: as §2

[3] = Intrinsic clearance in presence of human microsomes; assay type: in vitro ADME; details: read-out: Clint hm (intrinsic clearance, human microsomes)
Excerpt: as §2

[4] = Intrinsic clearance in presence of rat hepatocytes; assay type: in vitro ADME; details: read-out: Clint rh (intrinsic clearance, rat hepatocytes)
Excerpt: as §2

C57BL/6 w.t. BMDCs = test: Cytokine induction in BMDCs of w.t. C57BL/6 mice; assay type: cell-based, mouse; details: 24 h, 1 μg/ml TLR4 agonists, 2 μM R848
Excerpt: (§4) Femur/tibia bones from w.t. C57BL/6, TLR4/MD2 KO, and hTLR4/MD2 KIKO mice were soaked in 10% FBS-RPMI. Muscle and fat tissue was stripped off from the bones with a scalpel, then, bone pairs from individual mice were transferred to 100 mm petri dishes. Femur and tibia bones were separated and the ends cut with dissecting scissors so that bone marrow cells (BMCs) could be removed by flushing the interior of the bones using a 21 G needle and warm 10% FBS-RPMI. BMCs were passed through a 70 μm strainer, followed by RBC lysis. BMCs were cultured in a 70 mm flask for 24 h in the presence of 10 ng/ml (200 unit/ml) of mGM-CSF. Non-adherent cells were collected, washed, and seeded in a 175 cm flask in the presence of 20 ng/ml of mGM-CSF. Every two days, the cells were fed with fresh media and 20 ng/ml mGM-CSF. On day 9, cells were harvested, washed, and stained for CD11c/CD11b expression to determine BMDC density. BMDCs were cultured at 50,000 cells/well for 24 h with 1 μg/ml MPL, LPS, Ugi compounds, or 2 μM R848 (InVivogen).
(§5) Fig 10 Ugi compounds activate mouse BMDCs that express human TLR4/MD2. Bone marrow cells were isolated from femur/tibia bones of w.t. […] BMDCs were harvested at day 9, washed, counted, and stimulated in vitro for 24 h with 1 μg/ml TLR4 agonists and 2 μM R848. SNs were analyzed via mouse MILLIPLEX kits. Data are expressed as the means of 2 mice and are representative of 2 studies.

TLR4/MD2 KO BMDCs = test: Cytokine induction in BMDCs of mTLR4/MD2 knockout mice; assay type: cell-based, mouse; details: 24 h, 1 μg/ml TLR4 agonists, 2 μM R848
Excerpt: as §4, §5

cytochrome P450 enzymes = test: Inhibition of cytochrome P450 enzymes (unpublished data); assay type: in vitro ADME; details: compared with earlier-stage, more lipophilic Ugi compounds

| SMILES | EC50 (human TLR4) | logD [1] | also measured |
| --- | --- | --- | --- |
| COc1ccc(N(C(=O)c2[nH]c(-c3ccccc3)cc2C)C(C(=O)NC2CCCC2)c2ccncc2)cc1 (stereo not shown) [AZ126, N-(2-(cyclopentylamino)-2-oxo-1-(pyridin-4-yl)ethyl)-N-(4-methoxyphenyl)-3-methyl-5-phenyl-1H-pyrrole-2-carboxamide] | 2510 nM | > 4.5 | solubility [2]: 0.1 µM (≈ 0.0509 µg/mL); microsomal CLint ([3]; human): 56 µL/min/mg; hepatocyte CLint ([4]; rat): 28 µL/min/1e6 cells |
| CC(C)c1ccc(N(C(=O)c2cc(-c3ccccc3)n(-c3ccccc3)n2)C(C(=O)NC2CCCC2)c2ccc(/C=C/C(=O)O)cc2)cc1 (stereo not shown) [AZ368, (E)-3-(4-(2-(cyclopentylamino)-1-(N-(4-isopropylphenyl)-1,5-diphenyl-1H-pyrazole-3-carboxamido)-2-oxoethyl)phenyl)acrylic acid] | 1.58 nM | – | – |
| CCCCCCCCCCCCCC(=O)O[C@H](CCCCCCCCCCC)CC(=O)O[C@@H]1[C@@H](NC(=O)C[C@H](CCCCCCCCCCC)OC(=O)CCCCCCCCCCCCC)[C@H](OC[C@H]2O[C@H](O)[C@H](NC(=O)C[C@H](O)CCCCCCCCCCC)[C@@H](OC(=O)C[C@H](O)CCCCCCCCCCC)[C@@H]2O)O[C@H](CO)[C@H]1OP(=O)(O)O [GLA, glucopyranosyl lipid A, reference compound] | – | – | mTLR4-HEK AUC (mouse TLR4/MD2): 14.24; hTLR4-HEK AUC (human TLR4/MD2): 3.75 |
| CCOCc1nc2c(N)nc3ccccc3c2n1CC(C)(C)O [R848] | – | – | cytokine response of C57BL/6 w.t. BMDCs (C57BL/6 w.t. BMDCs): strong response; cytokine response of mTLR4/MD2 knockout BMDCs (TLR4/MD2 KO BMDCs): retained |
| C#Cc1ccc(C(C(=O)NC2CCCC2)N(C(=O)c2cc(-c3ccccc3)n(-c3ccccc3)n2)c2ccc(OC)cc2)cc1 (stereo not shown) [AZ606] | – | > 4.5 | solubility [2]: 2.2 µM (≈ 1.31 µg/mL); increase in potency in the hTLR4-HEK assay (human TLR4; relative to AZ126): 10 fold; microsomal CLint [3]: 39 µL/min/mg; inhibition of one or more cytochrome P450 enzymes (cytochrome P450 enzymes): greatly reduced; hepatocyte CLint [4]: 36 µL/min/1e6 cells |
| C#Cc1ccc(C(C(=O)NC2CCCC2)N(C(=O)c2ccc(-c3ccccc3)[nH]2)c2ccc(OC)cc2)cc1 (stereo not shown) [AZ462] | 1000 nM | > 4.5 | – |
| CC(C)c1ccc(N(C(=O)c2cc(-c3ccccc3)n(-c3ccccc3)n2)C(C(=O)NC2CCCC2)c2ccc(CC(=O)NO)cc2)cc1 (stereo not shown) [AZ226] | 158 nM | > 4.5 | – |

Further lines, with some results ahead:

| EC50 (human TLR4) | logD [1] | SMILES | also measured |
| --- | --- | --- | --- |
| 2000 nM | – | C#Cc1ccc(C(C(=O)N[C@@H](C(=O)O)C(C)C)N(C(=O)c2cc(-c3ccccc3)n(-c3ccccc3)n2)c2ccc(OC)cc2)cc1 (stereo partly shown) [AZ792] | – |
| 25.1 nM | 3.62 | Cc1cccc(CN(C(=O)c2cc(-c3ccccc3)n(-c3ccccc3)n2)C(C(=O)NC2CCCC2)c2ccc(CC(=O)O)cc2)c1C (stereo not shown) [AZ839] | mTLR4-HEK AUC (mouse TLR4/MD2): 0.93; hTLR4-HEK AUC (human TLR4/MD2): 6.00 |
| 398 nM | > 4.5 | COc1ccc(N(C(=O)c2cc(-c3ccccc3)n(-c3ccccc3)n2)C(C(=O)NC2CCCC2)c2ccncc2)cc1 (stereo not shown) [AZ842] | – |
| 12.3 nM | 4.3 | O=C(O)Cc1ccc(C(C(=O)NC2CCCC2)N(C(=O)c2cc(-c3ccccc3)n(-c3ccccc3)n2)c2ccc(Cc3ccccc3)cc2)cc1 (stereo not shown) [AZ897] | – |
| 100 nM | 2.74 | COc1ccc(N(C(=O)c2cc(-c3ccccc3)n(-c3ccccc3)n2)C(C(=O)NC2CCCC2)c2ccc(CC(=O)O)cc2)cc1 (stereo not shown) [AZ635] | – |
